According to PMC8788354 (Journal of Enzyme Inhibition and Medicinal Chemistry, 2022):
Where two headings read alike, the source gives them in different places. Numbered stars: 1 amine (or outer) side, 2 acyl side, 3 side chain; on linkers, the order of the positions; unused ones are H or OH. Bridge positions count the residues as written; N and C are the ends. Square brackets hold non-standard residues; d marks the D form. Peptide text beside a SMILES is read from it. I, II: the chains in the order shown. Actinocin(9to1) = Cc1c2oc3c(C)ccc(C(=O)[*:1])c3nc-2c(C(=O)[*:2])c(N)c1=O; NMeV = CN[C@H](C(=O)O)C(C)C; Sar = CNCC(=O)O

Tests used:
[1] = system: SKBR-3 (human breast cancer cell line); experiment: cells; assay type: cell-based; conditions: Homo sapiens, SRB assay, 72 h exposure, read-out: Anticancer activity IC50 (nM) ± SD, SKBR-3
[2] = in vitro; conditions: human
[3] = system: SKOV-3 (ovarian cancer cell line); experiment: cells; assay type: cell-based, human; conditions: Homo sapiens, SK-OV-3; SRB assay, 72 h exposure; read-out: Anticancer activity IC50 (nM) ± SD, SKOV-3
[4] = system: U-87MG cells (glioblastoma cell line); experiment: cells; assay type: cell-based, human; conditions: Homo sapiens, U-87 MG; SRB assay, 72 h exposure; read-out: Anticancer activity IC50 (nM) ± SD, U-87
[5] = system: PC-3 (human prostate cancer cell line); experiment: cells; assay type: cell-based; conditions: Homo sapiens; SRB assay, 72 h exposure; read-out: Anticancer activity IC50 (nM) ± SD, PC-3
[6] = Toxicity IC50 (nM) ± SD, HDF, healthy cell line HDF, SRB assay, 72 h exposure

| Structure (SMILES) | IC50 ([1]; SK-BR-3, 72 h) [nM] | IC50 [2, 6] [nM] | IC50 [3] [nM] | IC50 [4] [nM] | IC50 [5] [nM] | IC50 ([1]; SK-BR-3) [nM] | IC50 [2] [nM] |
| --- | --- | --- | --- | --- | --- | --- | --- |
| COc1cc2c(c(OC)c1OC)-c1ccc(OCc3cn(CCCNC4=C5C[C@@H](C)C[C@H](OC)[C@H](O)[C@@H](C)/C=C(\C)[C@H](OC(N)=O)[C@@H](OC)/C=C\C=C(/C)C(=O)NC(=CC4=O)C5=O)nn3)c(=O)cc1[C@@H](NC(C)=O)CC2 [Compound 6f] | 17.4 ± 0.64 | 18 ± 0.24 | 15.3 ± 0.31 | 17.3 ± 0.35 | 17.84 ± 0.16 | – | – |
| COc1cc2c(c(OC)c1OC)-c1ccc(OCc3cn(Cc4ccc([N+](=O)[O-])cc4)nn3)c(=O)cc1[C@@H](NC(C)=O)CC2 [Compound 6c] | 2.88 ± 0.06 | 4.08 ± 0.26 | 2.42 ± 0.11 | 2.81 ± 0.18 | 2.05 ± 0.03 | – | – |
| CCOC(=O)COc1ccc2c(cc1=O)[C@@H](NC(C)=O)CCc1cc(OC)c(OC)c(OC)c1-2 [Compound 4g] | 1.28 ± 0.17 | 2.05 ± 0.02 | 1.06 ± 0.22 | 1.27 ± 0.01 | 1.15 ± 0.03 | – | – |
| COc1cc2c(c(OC)c1OC)-c1ccc(=O)c(OCc3cn([C@@H]4O[C@H](COC(C)=O)[C@@H](OC(C)=O)[C@H](OC(C)=O)[C@H]4NC(C)=O)nn3)cc1[C@@H](NC(C)=O)CC2 [Compound 5d] | 6.29 ± 0.25 | 7.99 ± 0.04 | 6.03 ± 0.19 | 6.11 ± 0.26 | 6.39 ± 0.08 | – | – |
| C/C=C/COc1ccc2c(cc1=O)[C@@H](NC(C)=O)CCc1cc(OC)c(OC)c(OC)c1-2 [Compound 4e] | 1.97 ± 0.04 | 2.66 ± 0.03 | 1.92 ± 0.11 | 1.93 ± 0.02 | 1.98 ± 0.05 | – | – |
| Cc1c2oc3c(C)ccc(C(=O)N[C@@H]4C(=O)N[C@H](C(C)C)C(=O)N5CCC[C@H]5C(=O)N(C)CC(=O)N(C)[C@@H](C(C)C)C(=O)O[C@@H]4C)c3nc-2c(C(=O)N[C@@H]2C(=O)N[C@H](C(C)C)C(=O)N3CCC[C@H]3C(=O)N(C)CC(=O)N(C)[C@@H](C(C)C)C(=O)O[C@@H]2C)c(N)c1=O [ActD, actinomycin D, reference compound] (I: T[dV]P[Sar][NMeV] / II: T[dV]P[Sar][NMeV]; ester I:1-I:C, II:1-II:C; linker I:N-II:N via Actinocin(9to1)) | – | – | – | 1610 ± 90 | – | 1140 ± 60 | – |
| C=Cc1ccc(COc2ccc3c(cc2=O)[C@@H](NC(C)=O)CCc2cc(OC)c(OC)c(OC)c2-3)cc1 [Compound 4j] | 3.22 ± 0.36 | 5.17 ± 0.28 | 3.01 ± 0.04 | 3.11 ± 0.03 | 3.05 ± 0.01 | – | – |
| COc1cc2c(c(OC)c1OC)-c1ccc(OCc3cn(Cc4ccccc4)nn3)c(=O)cc1[C@@H](NC(C)=O)CC2 [Compound 6a] | 2.33 ± 0.09 | 3.88 ± 0.14 | 2.79 ± 0.07 | 2.78 ± 0.05 | 2.04 ± 0.44 | – | – |
| COc1cc2c(c(OC)c1OC)-c1ccc(=O)c(OCc3ccc(/C=C/c4ccc5ccccc5c4)cc3)cc1[C@@H](NC(C)=O)CC2 [Compound 7a] | 8.02 ± 0.08 | 8.19 ± 0.92 | 8.54 ± 0.71 | 8.63 ± 0.14 | 8.61 ± 0.38 | – | – |
| COc1cc2c(c(OC)c1OC)-c1ccc(OC/C=C/c3ccccc3)c(=O)cc1[C@@H](NC(C)=O)CC2 [Compound 4c] | 3.46 ± 0.07 | 4.94 ± 0.15 | 3.05 ± 0.03 | 3.82 ± 0.22 | 3.19 ± 0.01 | – | – |
| COc1cc2c(c(OC)c1OC)-c1ccc(OC)c(=O)cc1[C@@H](NC(C)=O)CC2 [Compound 1, colchicine, reference compound] | – | – | – | – | – | – | 2.37 ± 0.15 |
| COc1cc2c(c(OC)c1OC)-c1ccc(=O)c(OCCCN=[N+]=[N-])cc1[C@@H](NC(C)=O)CC2 [Compound 3i] | 1.32 ± 0.05 | 2.85 ± 0.13 | 1.05 ± 0.02 | 1.88 ± 0.05 | 1.43 ± 0.02 | – | – |
| COc1cc2c(c(OC)c1OC)-c1ccc(OCc3ccc(/C=C/c4ccc5ccccc5c4)cc3)c(=O)cc1[C@@H](NC(C)=O)CC2 [Compound 8a] | 6.3 ± 0.09 | 8.72 ± 0.48 | 6.49 ± 0.25 | 6.44 ± 0.07 | 6.03 ± 0.26 | – | – |
| COc1cc2c(c(OC)c1OC)-c1ccc(OCCCN=[N+]=[N-])c(=O)cc1[C@@H](NC(C)=O)CC2 [Compound 4i] | 1.38 ± 0.03 | 2.58 ± 0.12 | 1.37 ± 0.09 | 1.19 ± 0.03 | 1.49 ± 0.16 | – | – |
| C=CCOc1cc2c(ccc1=O)-c1c(cc(OC)c(OC)c1OC)CC[C@@H]2NC(C)=O [Compound 3d] | 1.09 ± 0.01 | 2.83 ± 0.05 | 1.68 ± 0.09 | 1.63 ± 0.04 | 1.05 ± 0.01 | – | – |
